Results published in article PMC11013139, “Identification of Corn Peptides with Alcohol Dehydrogenase Activating Activity Absorbed by Caco-2 Cell Monolayers” (Molecules, 2024).
Where no end group is shown, it is not given here.

Columns and labels:
[1] = molecular target: T1, ADH (Saccharomyces cerevisiae, UniProt P00330); experiment: ADH activation activity in vitro (improved assay kit method); format: biochemical; conditions: synthetic peptides; ADH 0.2 U/mL, NAD+ and ethanol, 37 °C, absorbance 340 nm every 10 s for 10 min; mean ± SD of three parallel experiments
T1 sequence (P00330 1-348): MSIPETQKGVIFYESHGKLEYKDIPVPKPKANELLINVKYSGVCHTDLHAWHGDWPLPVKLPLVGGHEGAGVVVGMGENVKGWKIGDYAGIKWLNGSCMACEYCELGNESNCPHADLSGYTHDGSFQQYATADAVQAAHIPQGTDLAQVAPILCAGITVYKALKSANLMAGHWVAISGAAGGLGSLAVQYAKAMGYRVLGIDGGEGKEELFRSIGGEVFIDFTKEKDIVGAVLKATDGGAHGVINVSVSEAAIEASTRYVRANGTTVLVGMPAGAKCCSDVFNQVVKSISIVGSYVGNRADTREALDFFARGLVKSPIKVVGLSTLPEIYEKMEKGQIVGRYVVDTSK
Experimental: The ADH activation activity in vitro was detected using an improved assay kit method. The specific steps are as follows: 50 μL of the sample solution was mixed with 150 μL of the assay reagent (including buffer, NAD^+, and ethanol); after equilibrating at 37 °C for 5 min, 50 μL of ADH (0.2 U/mL) was added to initiate the reaction. The absorbance at 340 nm was measured using a Varioskan Flash (Thermo Fisher Scientific, Waltham, MA, USA) full-wavelength scanning multimode reader, with readings taken every 10 s for 10 min. Distilled water was used as a negative control in place of the sample. The reaction kinetics curve was fitted, and the first derivative of the curve at 0 min was calculated as the initial reaction rate. The initial reaction rate of the sample was recorded as Vs, while that of the negative control was recorded as V0. The ADH activation rate of the sample can be calculated using the following equation:(1) ADH activation activity %=VS−V0/V0×100

[2] = test system: ADH enzyme; conditions: cited from earlier work
Excerpt: The results of molecular docking were visualized by selecting three peptides with the lowest binding energy, as depicted in Figure 5. Three peptides successfully docked onto the hydrophobic cavity near the ADH active site, primarily binding to ADH through hydrogen bonds and hydrophobic interactions. Twelve hydrogen bonds were formed between SSNCQPF and ADH residues (His 44, Gly 181, Leu 182, Gly 183, Val 245, Ser 246, Val 247, Met 270, Glu 333, Gly 339, Arg 340). Ten hydrogen bonds were formed between QPQQP ...

Substance | EC50 [1] | binding energy between peptide KPC and ADH enzyme [2]
TGCPVLQ [TGCPVLQ] | 2260 ± 160 µM | 
QPQQPW [QPQQPW] | 2730 ± 130 µM | 
Lys-Pro-Cys [KPC, Chicken-derived tripeptide KPC (Lys-Pro-Cys)] |  | -6.6 kcal/mol
SSNCQPF [SSNCQPF] | 1350 ± 220 µM | 
